Patent US11204492B2, “Naphtyl based high index hydrophobic liquids and transmission recovery agents for liquid lens formulations” (CORNING INCORPORATED, priority 2018, dated 2021)
Values after ≈ are worked out from the molar mass of the structure shown.

Legend:
[1] = Density of naphthalene based compounds and liquid lens liquids; format: physicochemical; set-up: Density at 20° C.: unit not given here; conditions: for Density at 20° C.: neat compound
[2] = Solubility in ethylene glycol; conditions: organic solvent or mixture
[3] = Refractive index at 589.3 nm; format: physicochemical; conditions: neat compound
Experimental: (§1) The following examples represent a variety of liquid lenses prepared according to Varioptic A39N0 design. The Varioptic A39N0 lens design includes a mechanical aperture of about 3.9 mm, a non-conductive fluid layer thickness of about 0.6 mm, and a conductive fluid layer thickness of about 1.8 mm. The properties measured for these electrowetting optical devices were performed at 20° C.
(§2) Example of the naphthalene based compounds disclosed herein have a listing of some of their physical properties listed below.

[4] = Viscosity at 20° C.; format: physicochemical; conditions: neat compound
Experimental: as §1, §2

[5] = Solubility in water; conditions: 20 °C

| Structure (SMILES) | Density at 20° C. [1] | solubility ([2]; 20 °C) [µg/mL] | solubility ([2]; 85 °C) [µg/mL] | Index at 589.3 nm/20° C. [3] | Viscosity at 20° C. [4] [cSt] | solubility [5] [µg/mL] | Density ([1]; 25° C.) | Density ([1]; comparative aliphatic oil, temperature not given) [g/mL] |
| --- | --- | --- | --- | --- | --- | --- | --- | --- |
| CCCC[Si](C)(C)c1ccc2ccccc2c1 [IX, 2-dimethylbutylsilane naphthalene] | 0.97 | 1100 (≈ 4.54 mM) | 2100 (≈ 8.66 mM) | 1.57 | 14.9 | – | – | – |
| [CH3][Ge]([CH3])([CH3])[c]1ccc2ccccc2c1 [VI, 2-trimethylgermane naphthalene] | 1.19 | 3400 | 14800 | 1.59 | 6.1 | 6 | – | – |
| C[CH2][Ge]([CH2]C)([CH2]C)[c]1ccc2ccccc2c1 [VII, 2-triethylgermane naphthalene] | 1.14 | 1900 | 4200 | 1.58 | 10.6 | – | – | – |
| C[Si](C)(C)c1ccc2ccccc2c1 [VIII, 2-trimethylsilane naphthalene] | 1.01 | – | – | 1.58 | 8.1 | – | – | – |
| c1ccc(Sc2ccc3ccccc3c2)cc1 [X, 2-phenylsulfur naphthalene] | 1.16 | – | – | 1.69 | 33.8 | – | – | – |
| CCCCCCCC[Si](C)(C)c1ccc2ccccc2c1 [XI, 2-dimethyloctylsilane naphthalene] | 0.95 | 440 (≈ 1.47 mM) | 680 (≈ 2.28 mM) | 1.54 | 25.9 | – | – | – |
| Fc1cccc2ccccc12 [XII, 1-fluoronapthalene] | 1.13 | – | – | 1.59 | 2.1 | – | – | – |
| CCc1ccc2ccccc2c1 [XIII, 2-ethylnaphthalene] | 1.01 | – | – | 1.61 | 3.9 | – | about 1.01 g/cm^3 | – |
| CCCc1ccc2ccccc2c1 [XIV, 2-propylnaphthalene] | 0.98 | – | – | 1.58 | – | – | – | – |
| CCCCCCCCCCCC [dodecane, reference compound] | – | – | – | – | – | – | – | 0.75 |
